From patent US20250026752A1, “POSITIVE ALLOSTERIC MODULATORS OF THE MUSCARINIC ACETYLCHOLINE RECEPTOR M4” (Vanderbilt University, priority 2021, published 2025) come the findings set out here.

In this experiment the target is T1, human mAChR M4 (Homo sapiens, UniProt P08173).
T1 construct: expressed in transfected cells; host or cells: CHO-K1 (ATCC), stably expressing hM4 and Gqi5
T1 sequence (P08173 1-479): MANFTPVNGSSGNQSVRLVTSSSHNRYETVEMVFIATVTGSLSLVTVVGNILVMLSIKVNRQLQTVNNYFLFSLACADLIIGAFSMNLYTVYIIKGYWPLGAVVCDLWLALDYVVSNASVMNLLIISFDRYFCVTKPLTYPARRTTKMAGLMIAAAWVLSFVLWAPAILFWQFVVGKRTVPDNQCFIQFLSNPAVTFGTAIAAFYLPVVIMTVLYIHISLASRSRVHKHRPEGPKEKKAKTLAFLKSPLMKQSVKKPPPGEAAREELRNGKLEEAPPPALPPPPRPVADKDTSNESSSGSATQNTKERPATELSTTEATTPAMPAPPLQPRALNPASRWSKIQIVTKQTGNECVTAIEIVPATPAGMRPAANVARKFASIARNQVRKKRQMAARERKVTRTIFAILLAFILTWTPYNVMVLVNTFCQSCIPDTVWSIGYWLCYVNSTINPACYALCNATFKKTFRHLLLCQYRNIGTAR
Kind of experiment: mAChR M4 cell-based functional assay: calcium flux (Fluo-4, FDSS), positive allosteric modulator activity on the EC20 acetylcholine response, hM4-Gqi5 CHO-K1 cells. To be noted: for Emax at 30 µM: CHO-K1, human M4, % ACh maximum at 30 μM; for EC50: human M4, PAM activity on EC20 acetylcholine response, calcium flux, read-out: Human M4 EC50. In short, it runs like this:
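CHO-K1 cells stably expressing human M4 with chimeric Gqi5, loaded with Fluo-4 AM for 50 min at 37° C. Compounds (11-point, 1:3 dilutions) added first, then an acetylcholine EC20 at 144 s; calcium read on FDSS at 1 Hz. EC50 is the half-maximal increase above the EC20 baseline, four-parameter logistic fit.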

SMILES strings stand for the structures.

Regarding `Cc1nc(N2CCc3ncc(N4CCCn5nccc54)cc3C2)c2cc(C(F)(F)F)ccc2n1` [Compound 101, 4-[3-(6,7-dihydro-5H-pyrazolo[1,5-a]pyrimidin-4-yl)-7,8-dihydro-5H-1,6-naphthyridin-6-yl]-2-methyl-6-(trifluoromethyl)quinazoline], the Emax at 30 µM stood at 92% and the EC50 stood at 480 nM.
For `Cc1ccc2ncnc(N3CCc4ncc(N5CCCn6nccc65)cc4C3)c2c1` [Compound 78, 4-[3-(6,7-dihydro-5H-pyrazolo[1,5-a]pyrimidin-4-yl)-7,8-dihydro-5H-1,6-naphthyridin-6-yl]-6-methyl-quinazoline] the same measures were 129% and 30 nM.
For `Clc1ccc2nc(Cl)nc(N3CCc4ncc(Br)cc4C3)c2c1` [Compound 149, 4-(3-bromo-7,8-dihydro-5H-1,6-naphthyridin-6-yl)-2,6-dichloro-quinazoline] the same measures were 97% and 170 nM.
For `CC(C)(C)c1cc2n(n1)CCCN2c1cnc2c(c1)CN(c1ncnc3ccc(F)cc13)CC2` [Compound 279, 4-(3-(2-(tert-butyl)-6,7-dihydropyrazolo[1,5-a]pyrimidin-4(5H)-yl)-7,8-dihydro-1,6-naphthyridin-6(5H)-yl)-6-fluoroquinazoline] the same measures were 72% and 810 nM.
For the compound `C[C@@H]1CN(c2ncnc3ccc(Cl)cc23)Cc2cc(N3CCOCC3)cnc21` [Compound 260, (R)-4-(6-(6-chloroquinazolin-4-yl)-8-methyl-5,6,7,8-tetrahydro-1,6-naphthyridin-3-yl)morpholine], the Emax at 30 µM is 107% and the half-maximal effective concentration (EC50) was found to be 120 nM.
The matching figures for `Cc1noc(C)c1-c1cnc2c(c1)CN(c1nc(-c3c(C)noc3C)nc3ccc(Cl)cc13)CC2` [Compound 187, 4-[6-chloro-4-[3-(3,5-dimethylisoxazol-4-yl)-7,8-dihydro-5H-1,6-naphthyridin-6-yl]quinazolin-2-yl]-3,5-dimethyl-isoxazole]: 79% and 4150 nM.
On to `[2H]c1nc(N2CCc3ncc(N4CCOc5ncccc54)cc3C2)c2cc(C)ccc2n1` [Compound 204, 1-[6-(2-deuterio-6-methyl-quinazolin-4-yl)-7,8-dihydro-5H-1,6-naphthyridin-3-yl]-2,3-dihydropyrido[2,3-b][1,4]oxazine], for which the maximum response (Emax) at 30 µM was 93% and the EC50 turned out to be 80 nM.
As to `Cc1nc(N2CCc3ncc(Oc4ccccc4F)cc3C2)c2cc(F)ccc2n1` [Compound 133, 6-fluoro-4-[3-(2-fluorophenoxy)-7,8-dihydro-5H-1,6-naphthyridin-6-yl]-2-methyl-quinazoline], the maximal response (Emax) at 30 µM was determined as 87% and the EC50 is 230 nM.
With `Cc1nn(C)cc1-c1cnc2c(c1)CN(c1nc(C3CC3)nc3ccc(Cl)cc13)CC2` [Compound 191, 6-chloro-2-cyclopropyl-4-[3-(1,3-dimethylpyrazol-4-yl)-7,8-dihydro-5H-1,6-naphthyridin-6-yl]quinazoline], the Emax at 30 µM was 80% and the concentration for a half-maximal effect (EC50) was 1070 nM.
The matching figures for `Cc1noc(C)c1-c1cnc2c(c1)CN(c1ncnc3cc(F)c(F)cc13)CC2` [Compound 240, 4-(6-(6,7-difluoroquinazolin-4-yl)-5,6,7,8-tetrahydro-1,6-naphthyridin-3-yl)-3,5-dimethylisoxazole]: 79% and 210 nM.
For `Cc1nc(N2CCc3ncc(C(F)(F)F)cc3C2)c2c(F)cccc2n1` [Compound 125, 5-fluoro-2-methyl-4-[3-(trifluoromethyl)-7,8-dihydro-5H-1,6-naphthyridin-6-yl]quinazoline] the same measures were 78% and 400 nM.
For `Cc1ccc(-c2cnc3c(c2)CN(c2ncnc4ccc(Cl)cc24)CC3)cn1` [Compound 43, 6-chloro-4-[3-(6-methyl-3-pyridyl)-7,8-dihydro-5H-1,6-naphthyridin-6-yl]quinazoline] the same measures were 79% and 70 nM.

A word on the Emax: it is the maximal effect, on the per cent scale that the assay sets. As usually defined, the EC50 is the concentration that produces a half-maximal response.
